Publication PMC7863721, “Plasticity of Carbohydrate Transport at the Blood-Brain Barrier” (Frontiers in Behavioral Neuroscience, 2021)

Assays:
[1] = target: T1, Pippin (CG4797); Pippin-3xHA (Drosophila melanogaster, UniProt Q8MLQ7); assay: […]-sugar uptake into cRNA-injected Xenopus oocytes, net flux over native oocytes; type: cell-based; details: labelled compound; pH 7.2, 60 min; concentration series; no reliable Km or Vmax obtained
T1 sequence (Q8MLQ7 1-533): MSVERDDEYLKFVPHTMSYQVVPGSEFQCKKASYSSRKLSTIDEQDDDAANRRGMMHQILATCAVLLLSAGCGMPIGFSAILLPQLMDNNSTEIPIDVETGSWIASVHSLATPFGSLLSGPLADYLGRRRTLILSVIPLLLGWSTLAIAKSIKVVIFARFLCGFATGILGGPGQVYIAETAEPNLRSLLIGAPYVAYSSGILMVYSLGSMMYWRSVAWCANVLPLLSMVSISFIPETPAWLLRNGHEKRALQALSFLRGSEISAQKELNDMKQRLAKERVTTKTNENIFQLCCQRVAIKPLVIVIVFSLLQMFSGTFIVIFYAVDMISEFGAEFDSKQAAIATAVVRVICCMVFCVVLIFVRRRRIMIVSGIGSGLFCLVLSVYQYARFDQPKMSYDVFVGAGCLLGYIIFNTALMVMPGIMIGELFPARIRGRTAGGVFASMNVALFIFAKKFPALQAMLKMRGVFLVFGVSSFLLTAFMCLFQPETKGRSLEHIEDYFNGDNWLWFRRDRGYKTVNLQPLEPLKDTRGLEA

[2] = target: T2, MFS3 (Major Facilitator Superfamily Transporter 3); MFS3-3xHA (Drosophila melanogaster, UniProt Q9VPX2); assay: as above; type: cell-based; details: labelled compound; pH 7.2, 60 min; concentration series; no reliable Km or Vmax obtained
T2 construct: b38 prints CG4762, apparently a misprint of CG4726
T2 sequence (Q9VPX2 1-512): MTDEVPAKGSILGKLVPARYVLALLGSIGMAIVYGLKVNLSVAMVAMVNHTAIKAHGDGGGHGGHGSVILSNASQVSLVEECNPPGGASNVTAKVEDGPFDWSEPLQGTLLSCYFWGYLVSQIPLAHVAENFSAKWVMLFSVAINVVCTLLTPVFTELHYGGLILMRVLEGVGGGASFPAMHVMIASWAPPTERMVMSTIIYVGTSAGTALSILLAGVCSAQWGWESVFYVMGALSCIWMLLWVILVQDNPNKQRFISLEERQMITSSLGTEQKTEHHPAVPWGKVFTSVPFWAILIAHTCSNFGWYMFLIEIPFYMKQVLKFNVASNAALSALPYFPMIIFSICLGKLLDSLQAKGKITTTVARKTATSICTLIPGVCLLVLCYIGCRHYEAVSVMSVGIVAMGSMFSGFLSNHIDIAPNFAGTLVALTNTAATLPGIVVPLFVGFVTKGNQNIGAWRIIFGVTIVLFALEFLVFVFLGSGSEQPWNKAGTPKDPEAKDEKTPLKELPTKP

**Q.** How did the “14C-sugar uptake into cRNA-injected Xenopus oocytes, net flux over native oocyte” value [1] turn out when `OC[C@H]1OC(O)[C@H](O)[C@@H](O)[C@@H]1O` (stereo partly shown) [glucose] was run?
**A.** both Pippin and MFS3 facilitate uptake of glucose and trehalose efficiently

**Q.** What about the “14C-sugar uptake into cRNA-injected Xenopus oocytes, net flux over native oocyte” value [2] of the same compound?
**A.** both Pippin and MFS3 facilitate uptake of glucose and trehalose efficiently

**Q.** For `OC[C@H]1O[C@H](O[C@H]2O[C@H](CO)[C@@H](O)[C@H](O)[C@H]2O)[C@H](O)[C@@H](O)[C@@H]1O` [trehalose], which “14C-sugar uptake into cRNA-injected Xenopus oocytes, net flux over native oocyte” value [1] is on record?
**A.** both Pippin and MFS3 facilitate uptake of glucose and trehalose efficiently

**Q.** What about the “14C-sugar uptake into cRNA-injected Xenopus oocytes, net flux over native oocyte” value [2] of the same compound?
**A.** both Pippin and MFS3 facilitate uptake of glucose and trehalose efficiently
